# Results from patent US20160031937A1, “NEURAL REGENERATION PEPTIDES AND USES THEREFOR” (CURONZ HOLDINGS COMPANY LIMITED, priority 2013, published 2016).
# Square brackets hold non-standard residues; d marks the D form. Ends that are not written are not given here. Aib = CC(C)(N)C(=O)O
# What was measured:
# [1] = tested on: endogenous NRP gene expression; test: Endogenous NRP gene expression in human embryonic W9 stem cells; assay type: cell-based; settings: 100 fM NRP2945
# [2] = tested on: NRP 13q13.2 gene expression; test: NRP 13q13.2 gene expression by semi-quantitative RT-PCR in NTERA-2 cells; assay type: cell-based, human
# Experimental: mRNA was extracted according to standard procedures (TRIzole® from Invitrogen or RNeasy Mini from Qiagen). The mRNA fraction was subjected to DNase I treatment using DNaseI incubation mixture. For this treatment, 10 μl DNaseI stock plus 70 μl buffer was added to mRNA preparation and incubated for 5 minutes at room temperature. cDNA synthesis was then carried out according to standard procedures (SuperScript® III Reverse Transcriptase from Invitrogen).
# The optimized RT-PCR strategy used an intron-spanning forward primer with high GC-content and TM (78° C.) and a reverse primer with a lower TM (60° C.). These primers are shown in FIG. 10, and also further below. The mRNA was treated with DNase I before starting the synthesis of cDNA, as the intron-spanning primer only bridged an intron of 9 nucleic acids.
# The expected RT-PCR product was 221 by in length. PCR conditions included annealing at 58° C. and 36 total cycles. Samples were incubated at 94° C. for 5 minutes as the start of the GeneAmp® cycler operation. The 36 cycles included the sequence: 94° C. for 30 seconds; 58° C. for 30 seconds; 72° C. for 30 seconds; followed by cooling to 15° C. at the end of the PCR.
# The PCR-reaction included: 10× buffer (2.50 μl), 50 mM MgCl2 (0.75 μl), 10 mM dNTPs (0.50 μl), Primer 1 (0.50 μl), Primer 2 (0.50 μl), Taq Polymerase (0.10 μl), cDNA (1.00 μl ), H2O (19.15 μl), to yield a total volume of 25.00 μl. Taq DNA Polymerase was sourced from Invitrogen (Platinum® Taq Polymerase).
# NTERA-2 (ATCC No. CRL-1973) is a human carcinoma derived pluripotent cell line that has only single copies of chromosome 1, 10, 11 and 13. This was the impetus for using 36 cycles of PCR for detection of NRP expression.
# Undifferentiated NTERA-2 cells were obtained. Frozen stocks were prepared with a maximum of 2 passages. NRP expression could be assessed in cells having up to 4-5 passages. The cell culture medium included ATCC-formulated DMEM plus 10% FCS. The medium was exchanged every 2-3 days. For passaging, cells were dislodges by scraping and then transferred into 75cm^2 flasks. An initial seeding included 5 million cells in 12-15 ml of cell medium per flask.
# Subcultivation was performed for gene expression tests. For subcultivation, cells were dislodged by scraping and then gathered by centrifugation at 1500 rpm for 7 minutes, at 4° C. The media was discarded and the cells were resuspended in 16 ml fresh DMEM/10%FBS. The expected yield was 12-15 million cells in the flask. Thus, the resuspended cells were at a concentration of about 1 million cells per ml.
# For passage 3, the remaining 4 ml of cell suspension plus 8 ml culture medium was transferred into new T75 cultivation flask.
# […] All conditions were applied for 15 minutes, 30 minutes, and 60 minutes.
# mRNA was then collected. Cells were washed once at the end of the treatment with subsequent cell scraping. Cells were passed through 25-gauge needle into a 15 ml falcon tube. Falcon tube cell content was aspirated, washed once with DMEM, followed by trypsinization. […]
# Centrifugation was carried out for 7 minutes at 1500 rpm, at 4° C. The pellets were then ready to be stored either at -80° C. or in liquid nitrogen until RNA extraction.
# For RNA extraction, thawed cell pellets were prepared according to manufacturer's instructions (RNeasy Mini from Qiagen). RNA concentration was determined by NanoDropTM. […] For synthesis of sufficient quantities of cDNA, the RNA concentration in the cell samples was ensured to be between 10-20 ng/μl. […]
# [3] = tested on: human DU-145 prostate cancer cells; test: DU-145 Boyden chamber motility bioassay; assay type: cell-based; settings: 0.1 ng/ml NRP2945 adhered to Boyden chamber bottom plate, 24 hours of incubation
# Description: Human epithelial DU-145 cells were obtained from ATCC (HTB-81). The DU-145 cell line was originally isolated from a metastatic prostate-derived cancer formed in the brain. The cells are adherent, and co-express CXCR4 and CCR3 receptors similar to neuroblasts and neurons. For this experiment, DU-145 cells were cultivated in ATCC-formulated Eagle's Minimum Essential Medium with 10% FBS in 5% CO2 at 37′C. The cells were then subcultivated as follows.
# The media was removed and discarded. The cell layer was briefly rinsed with 0.25% (w/v) trypsin and 0.5 mM EDTA to remove all remaining trypsin inhibitors from the serum. To each flask, 2-3 ml of trypsin-EDTA solution was added. This was incubated at room temperature.
# The cells were observed under an inverted microscope until dislodgement (between 10-15 minutes). Shaking was avoided to prevent the cells from clumping. […]
# The Boyden chamber inserts (Corning) were coated for 2 hours at 37° C. with […] poly-D-lysine (PDL; culture grade from Invitrogen). […] The coated Boyden chamber could then be refrigerated, stored, and ready for cell seeding. […]
# Cells were counted and 50,000 cells were seeded into one insert of a 12-well Boyden chamber. […]
# DU-145 cells attached to the lower insert membrane were visualized and counted with standard cell visualization methods using hematoxyclin staining. […]
# [4] = normoxic NTERA-2 cells, 1 pM NRP2945
substance,measurement,setting,value
"Gly Arg Arg Ala Ala Pro Gly Arg Aib Gly Gly (GRRAAPGR[Aib]GG) [NRP2945, synthetic 11-mer peptidomimetic optimized for stability and pharmacokinetics]",time to stimulated endogenous NRP gene expression after administration,[1],5 to 10 min
same,time to stimulated endogenous NRP gene expression after administration,"[2]; NTERA-2 cells, 100 pM NRP2945",5 to 10 min
same,NRP 13q13.2 gene expression during oxidative stress,"[2]; NTERA-2 cells, 0.5 mM 3-NP with simultaneous 1 pM NRP2945",up-regulated after 15 minutes and stays elevated during the period of analysis
same,time frame of exposure for up-regulation of endogenous NRP gene expression (13q13.2),"[2]; human NTERA-2 cells, autocrine, unpublished results",≤ 10 min
same,gene expression of NRP 13q13.2,[2]; [4],highly elevated after only 15 minutes
same,time of peak NRP 13q13.2 gene expression after peptide contact,[2]; [4],30 min
same,decrease of migrating cells,[3],36%
